Values of other authors in US20180042845A1, “PREPARATIONS OF CANNABIS EMULSIONS AND METHODS THEREOF” (ONE WORLD CANNABIS LTD., priority 2015, published 2018).

How the values were obtained:
CB2 receptor = CB2 receptor (Homo sapiens, UniProt P34972)
Chain of CB2 receptor (P34972 whole entry): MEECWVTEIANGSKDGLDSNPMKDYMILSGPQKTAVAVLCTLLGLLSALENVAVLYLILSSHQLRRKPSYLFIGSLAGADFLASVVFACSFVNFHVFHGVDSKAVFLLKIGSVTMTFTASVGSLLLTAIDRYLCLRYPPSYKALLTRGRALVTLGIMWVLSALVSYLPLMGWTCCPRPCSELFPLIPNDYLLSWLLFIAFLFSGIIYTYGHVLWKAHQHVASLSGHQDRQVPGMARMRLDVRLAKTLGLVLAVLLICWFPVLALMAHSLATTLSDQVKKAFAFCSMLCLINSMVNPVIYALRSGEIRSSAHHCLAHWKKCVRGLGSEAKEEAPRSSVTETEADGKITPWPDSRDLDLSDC

**Q.** Which “Affinity for CB2 receptors” value (CB2 receptor) does the source give for `C=C(C)[C@@H]1CCC(C)=C[C@H]1c1c(O)cc(CCCCC)cc1O` [Cannabidiol] here?
**A.** Its value is “very low affinity”.

**Q.** What does the source list for `CCCCCc1cc(O)c2c(c1)OC(C)(C)[C@@H]1CCC(C)=C[C@@H]21` [THC, Tetrahydrocannabinol]?
**A.** Fraction of administered dose reaching systemic circulation (oral, first pass hepatic metabolism and high lipid solubility): 10-20%; Fraction absorbed after a single oral dose (single dose): 90-95%
